# Source: US8883963B2 (Cadila Healthcare Limited, priority 2007, dated 2014)
# Starred links: 1 amine or outer side, 2 acyl side, 3 side chain; linkers in the order of their positions; H or OH if unused. Non-standard residues stand in square brackets, D forms with d. Residues, ends and D or L forms follow the SMILES beside them. ξ: configuration not given here. *: point of attachment. ξBip(2'-Et-4'-OMe) = CCc1cc(OC)ccc1-c1ccc(CC(N)C(=O)O)cc1; X12 = COc1ccc(CCCC(N[*:1])C(=O)[*:2])c(Cl)c1; ξαMePhe(2-F) = CC(N)(Cc1ccccc1F)C(=O)O; X2 = O=C(C(CCCc1ccccc1Cl)N[*:1])[*:2]; ξhhPhe = NC(CCCc1ccccc1)C(=O)O; Aib = CC(C)(N)C(=O)O; Moc = COC(=O)*
# Columns and labels:
# [1] = system: C57BL/6J mice (mild hyperglycemic); experiment: In vivo glucose reduction, acute single dose 120-min time-course, i.p. route; set-up: species or system mouse; unit not given here; conditions: male C57BL/6J mice
# Protocol: All the animal experiments were carried out according to the internationally valid guidelines following approval by the ‘Zydus Research Center animal ethical committee’.
# Two days prior to the study, the animals were randomised and divided into 5 groups (n=6), based upon their fed glucose levels. On the day of experiment, food was withdrawn from all the cages, water was given ad-libitum and were kept for overnight fasting. Vehicle (normal saline)/test/standard compounds were administered intraperitoneally (i.p.) or orally, on a body weight basis.
# (§1) Blood samples were centrifuged and the separated serum was immediately subjected for the glucose estimation. Serum for insulin estimation was stored at −70° C. until used for the insulin estimation. The glucose estimation was carried out with DPEC-GOD/POD method (Ranbaxy Fine Chemicals Limited, Diagnostic division, India), using Spectramax-190, in 96-microwell plate reader (Molecular devices Corporation, Sunnyvale, Calif.). […] The AUC and BCAUC obtained from graphs were analyzed for one way ANOVA, followed by Dunnett's post test, using Graph Pad prism software. Furthermore, the insulin estimation was carried out using rat/mouse insulin ELISA kit (Linco research, Missouri USA).
# [2] = system: C57BL/6J mice (mild hyperglycemic); experiment: In vivo glucose reduction, acute single dose 120-min time-course, oral route; set-up: species or system mouse; unit not given here; conditions: male C57BL/6J mice
# Protocol: Acute single dose 120-min time-course experiments were carried out in male C57BL/6J or db/db mice, age 8-12 weeks, bred in-house. Animals were housed in groups of 6 animals per cage, for a week, in order to habituate them to vivarium conditions (25±4° C., 60-65% relative humidity, 12:12 h light:dark cycle, with lights on at 7.30 am). All the animal experiments were carried out according to the internationally valid guidelines following approval by the ‘Zydus Research Center animal ethical committee’.
# Two days prior to the study, the animals were randomised and divided into 5 groups (n=6), based upon their fed glucose levels. On the day of experiment, food was withdrawn from all the cages, water was given ad-libitum and were kept for overnight fasting. Vehicle (normal saline)/test/standard compounds were administered intraperitoneally (i.p.) or orally, on a body weight basis. Soon after the 0 min. blood collection from each animal, the subsequent blood collections were done at 30, 60 and 120 or up to 240 min., via retro-orbital route, under light ether anesthesia (Chen, D., et al., Diabetes Obesity Metabolism, 2005, 7, 307. Kim, J. G. et al., Diabetes, 2003, 52, 751).
# as §1, with “USA). Changes in the blood glucose levels, at 0, 30, 60 and 120 min, with selected peptidomimetics are shown in Table 7 (via ip route of administration) and Table 8 (via oral route of administration) respectively.” for “USA).”
SMILES,"blood glucose levels ([2]; 2 μM/kg oral, 0 min)","blood glucose levels ([2]; 2 μM/kg oral, 30 min)","blood glucose levels ([2]; 2 μM/kg oral, 60 min)","blood glucose levels ([2]; 2 μM/kg oral, 120 min)","blood glucose levels ([1]; 10 nM/kg i.p., 0 min)","blood glucose levels ([1]; 10 nM/kg i.p., 30 min)","blood glucose levels ([1]; 10 nM/kg i.p., 60 min)","blood glucose levels ([1]; 10 nM/kg i.p., 120 min)",also measured
"CCc1cc(OC)ccc1-c1ccc(CC(NC(=O)[C@H](CC(=O)O)NC(=O)[C@H](CO)NC(=O)[C@@H](NC(=O)[C@H](Cc2ccccc2)NC(=O)[C@@H](NC(=O)CNC(=O)C(CCC#N)NC(=O)C(C)(C)NC(=O)[C@@H](N)Cc2c[nH]cn2)[C@@H](C)O)[C@@H](C)O)C(=O)NC(CCCc2ccccc2)C(N)=O)cc1 (single isomer, unassigned) [Seq. ID. 29]",184 ± 2.5,118 ± 3.6,113 ± 4.2,110 ± 2.4,,,,,"blood glucose levels ([1]; 30 nM/kg i.p., 0 min): 180 ± 1.2; blood glucose levels ([1]; 30 nM/kg i.p., 30 min): 116 ± 3.2; blood glucose levels ([1]; 30 nM/kg i.p., 60 min): 116 ± 3.1; blood glucose levels ([1]; 30 nM/kg i.p., 120 min): 118 ± 1.8"
"CCc1cc(OC)ccc1-c1ccc(CC(NC(=O)[C@H](CC(=O)O)NC(=O)[C@H](CO)NC(=O)[C@@H](NC(=O)[C@H](Cc2ccccc2)NC(=O)[C@@H](NC(=O)CNC(=O)C(CCC#N)NC(=O)C(C)(C)NC(=O)[C@@H](N)Cc2c[nH]cn2)[C@@H](C)O)[C@@H](C)O)C(=O)NC(CCCc2cc(C)cc(C)c2)C(N)=O)cc1 (single isomer, unassigned) [Seq. ID. 30]",183 ± 2.4,119 ± 3.1,112 ± 4.8,110 ± 2.5,,,,,"blood glucose levels ([1]; 30 nM/kg i.p., 0 min): 183 ± 3.6; blood glucose levels ([1]; 30 nM/kg i.p., 30 min): 117 ± 3.3; blood glucose levels ([1]; 30 nM/kg i.p., 60 min): 116 ± 3.2; blood glucose levels ([1]; 30 nM/kg i.p., 120 min): 117 ± 1.4"
"CCc1cc(OC)ccc1-c1ccc(CC(NC(=O)[C@H](CC(=O)O)NC(=O)[C@H](CO)NC(=O)[C@@H](NC(=O)[C@H](Cc2ccccc2)NC(=O)[C@@H](NC(=O)CNC(=O)C(CCC#N)NC(=O)C(C)(C)NC(=O)[C@@H](N)Cc2c[nH]cn2)[C@@H](C)O)[C@@H](C)O)C(=O)NC(CCCc2ccc(Cl)cc2C)C(N)=O)cc1 (single isomer, unassigned) [Seq. ID. 32]",181 ± 2.5,117 ± 3.3,112 ± 4.0,108 ± 2.9,,,,,"blood glucose levels ([1]; 20 nM/kg i.p., 0 min): 182 ± 3.3; blood glucose levels ([1]; 20 nM/kg i.p., 30 min): 120 ± 3.6; blood glucose levels ([1]; 20 nM/kg i.p., 60 min): 127 ± 3.4; blood glucose levels ([1]; 20 nM/kg i.p., 120 min): 145 ± 2.1"
"CCc1cc(OC)ccc1-c1ccc(CC(NC(=O)[C@H](CC(=O)O)NC(=O)[C@H](CO)NC(=O)[C@@H](NC(=O)[C@H](Cc2ccccc2)NC(=O)[C@@H](NC(=O)CNC(=O)C(CCC#N)NC(=O)C(C)(C)NC(=O)[C@@H](N)Cc2c[nH]cn2)[C@@H](C)O)[C@@H](C)O)C(=O)NC(CCCc2ccccc2F)C(N)=O)cc1 (single isomer, unassigned) [Seq. ID. 77]",183 ± 2.1,118 ± 3.4,113 ± 4.6,111 ± 2.8,,,,,"blood glucose levels ([1]; 20 nM/kg i.p., 0 min): 183 ± 4.9; blood glucose levels ([1]; 20 nM/kg i.p., 30 min): 120 ± 2.8; blood glucose levels ([1]; 20 nM/kg i.p., 60 min): 129 ± 3.0; blood glucose levels ([1]; 20 nM/kg i.p., 120 min): 139 ± 2.0"
"CCc1cc(OC)ccc1-c1ccc(CC(NC(=O)[C@H](CC(=O)O)NC(=O)[C@H](CO)NC(=O)[C@@H](NC(=O)[C@H](Cc2ccccc2)NC(=O)[C@@H](NC(=O)CNC(=O)C(CCC#N)NC(=O)C(C)(C)NC(=O)[C@@H](N)Cc2c[nH]cn2)[C@@H](C)O)[C@@H](C)O)C(=O)NC(CCCc2ccc(F)cc2C(F)(F)F)C(N)=O)cc1 (single isomer, unassigned) [Seq. ID. 80]",,,,,183 ± 2.2,113 ± 2.8,113 ± 2.9,114 ± 2.0,"blood glucose levels ([2]; 0.5 μM/kg oral, 0 min): 184 ± 2.5; blood glucose levels ([2]; 0.5 μM/kg oral, 30 min): 115 ± 3.6; blood glucose levels ([2]; 0.5 μM/kg oral, 60 min): 113 ± 4.2; blood glucose levels ([2]; 0.5 μM/kg oral, 120 min): 110 ± 2.4"
"CCc1cc(OC)ccc1-c1ccc(CC(NC(=O)[C@H](CC(=O)O)NC(=O)[C@H](CO)NC(=O)[C@@H](NC(=O)[C@H](Cc2ccccc2)NC(=O)[C@@H](NC(=O)CNC(=O)C(CCC#N)NC(=O)C(C)(C)NC(=O)[C@@H](N)Cc2c[nH]cn2)[C@@H](C)O)[C@@H](C)O)C(=O)NC(CCCc2ccc(OC)cc2Cl)C(N)=O)cc1 (single isomer, unassigned) [Seq. ID. 84]",183 ± 2.4,116 ± 3.1,112 ± 4.8,110 ± 2.5,182 ± 2.3,110 ± 2.3,112 ± 3.0,112 ± 1.9,
"CCc1cc(OC)ccc1-c1ccc(CC(CNC(CCCc2ccccc2)C(N)=O)NC[C@H](CC(=O)O)NC(=O)[C@H](CO)NC(=O)[C@@H](NC(=O)C(C)(Cc2ccccc2F)NC(=O)[C@@H](NC(=O)CNC(=O)[C@H](CCC(N)=O)NC(=O)C(C)(C)NC(=O)[C@H](Cc2c[nH]cn2)NC(=O)OC)[C@H](C)O)[C@H](C)O)cc1 (single isomer, unassigned) [Seq. ID. 198]",,,,,,,,,"blood glucose levels ([1]; 50 nM/kg i.p., 0 min): 182 ± 4.1; blood glucose levels ([1]; 50 nM/kg i.p., 30 min): 112 ± 3.1; blood glucose levels ([1]; 50 nM/kg i.p., 60 min): 113 ± 2.6; blood glucose levels ([1]; 50 nM/kg i.p., 120 min): 111 ± 1.8"
CCc1cc(OC)ccc1-c1ccc(CC(NC(=O)[C@H](CC(=O)O)NC(=O)[C@H](CO)NC(=O)[C@@H](NC(=O)C(C)(Cc2ccccc2F)NC(=O)[C@@H](NC(=O)CNC(=O)[C@H](CCC(N)=O)NC(=O)C(C)(C)NC(=O)[C@@H](N)Cc2c[nH]cn2)[C@@H](C)O)[C@@H](C)O)C(=O)NC(CCCc2ccccc2Cl)C(N)=O)cc1 (stereo partly shown) [Seq. ID. 90] (H-H[Aib]QGT[ξαMePhe(2-F)]TSD[ξBip(2'-Et-4'-OMe)][X2]-NH2),,,,,181 ± 2.5,111 ± 3.4,113 ± 3.1,110 ± 1.8,
CCc1cc(OC)ccc1-c1ccc(CC(NC(=O)[C@H](CC(=O)O)NC(=O)[C@H](CO)NC(=O)[C@@H](NC(=O)C(C)(Cc2ccccc2F)NC(=O)[C@@H](NC(=O)CNC(=O)[C@H](CCC(N)=O)NC(=O)C(C)(C)NC(=O)[C@@H](N)Cc2c[nH]cn2)[C@@H](C)O)[C@@H](C)O)C(=O)NC(CCCc2ccc(OC)cc2Cl)C(N)=O)cc1 (stereo partly shown) [Seq. ID. 92] (H-H[Aib]QGT[ξαMePhe(2-F)]TSD[ξBip(2'-Et-4'-OMe)][X12]-NH2),,,,,180 ± 4.2,113 ± 3.2,112 ± 2.4,110 ± 1.9,
CCc1cc(OC)ccc1-c1ccc(CC(NC(=O)[C@H](CC(=O)O)NC(=O)[C@H](CO)NC(=O)[C@@H](NC(=O)C(C)(Cc2ccccc2F)NC(=O)[C@@H](NC(=O)CNC(=O)[C@H](CCC(N)=O)NC(=O)C(C)(C)NC(=O)[C@H](Cc2c[nH]cn2)NC(=O)OC)[C@@H](C)O)[C@@H](C)O)C(=O)NC(CCCc2ccccc2)C(N)=O)cc1 (stereo partly shown) [Seq. ID. 94] (Moc-H[Aib]QGT[ξαMePhe(2-F)]TSD[ξBip(2'-Et-4'-OMe)][ξhhPhe]-NH2),,,,,182 ± 4.1,112 ± 3.1,113 ± 2.6,111 ± 1.8,
